Source: PubChem BioAssay (NCI)
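Method: 48-hour compound exposure of cells in 96-well plates, five concentrations, linear interpolation of endpoints. TGI denotes the concentration required for complete inhibition of growth.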

Tests used:
Test in all cases: DTP human tumour cell line panel, 48 h
786-0 renal = test system: 786-0 renal
A498 renal = test system: A498 renal
A549 NSCLC = test system: A549 NSCLC
ACHN renal = test system: ACHN renal
CAKI-1 renal = test system: CAKI-1 renal
CCRF-CEM leukemia = test system: CCRF-CEM leukemia
COLO 205 colon = test system: COLO 205 colon
DU-145 prostate = test system: DU-145 prostate
EKVX NSCLC = test system: EKVX NSCLC
HCC-2998 colon = test system: HCC-2998 colon
HCT-116 colon = test system: HCT-116 colon
HCT-15 colon = test system: HCT-15 colon
HL-60(TB) leukemia = test system: HL-60(TB) leukemia
HOP-62 NSCLC = test system: HOP-62 NSCLC
HOP-92 NSCLC = test system: HOP-92 NSCLC
HS 578T breast = test system: HS 578T breast
HT29 colon = test system: HT29 colon
IGROV1 ovarian = test system: IGROV1 ovarian
K-562 leukemia = test system: K-562 leukemia
KM12 colon = test system: KM12 colon
LOX IMVI melanoma = test system: LOX IMVI melanoma
M14 melanoma = test system: M14 melanoma
MALME-3M melanoma = test system: MALME-3M melanoma
MDA-MB-231 breast = test system: MDA-MB-231 breast
MDA-MB-435 = test system: MDA-MB-435
MDA-N = test system: MDA-N
MOLT-4 leukemia = test system: MOLT-4 leukemia
NCI-H226 lung = test system: NCI-H226 lung
NCI-H23 lung = test system: NCI-H23 lung
NCI-H460 lung = test system: NCI-H460 lung
NCI-H522 lung = test system: NCI-H522 lung
NCI/ADR-RES ovarian = test system: NCI/ADR-RES ovarian
OVCAR-3 ovarian = test system: OVCAR-3 ovarian
OVCAR-4 ovarian = test system: OVCAR-4 ovarian
OVCAR-5 ovarian = test system: OVCAR-5 ovarian
OVCAR-8 ovarian = test system: OVCAR-8 ovarian
PC-3 prostate = test system: PC-3 prostate
RPMI-8226 leukemia = test system: RPMI-8226 leukemia
RXF 393 renal = test system: RXF 393 renal
SF-268 CNS = test system: SF-268 CNS
SF-295 CNS = test system: SF-295 CNS
SF-539 CNS = test system: SF-539 CNS
SK-MEL-2 melanoma = test system: SK-MEL-2 melanoma
SK-MEL-28 melanoma = test system: SK-MEL-28 melanoma
SK-MEL-5 melanoma = test system: SK-MEL-5 melanoma
SK-OV-3 ovarian = test system: SK-OV-3 ovarian
SN12C renal = test system: SN12C renal
SNB-19 CNS = test system: SNB-19 CNS
SR leukemia = test system: SR leukemia
SW-620 colon = test system: SW-620 colon
T-47D breast = test system: T-47D breast
TK-10 renal = test system: TK-10 renal
U251 CNS = test system: U251 CNS
UACC-257 melanoma = test system: UACC-257 melanoma
UACC-62 melanoma = test system: UACC-62 melanoma
UO-31 renal = test system: UO-31 renal

Measured: TGI

N#CC1=C(N2CCCC2)NC(=O)CC1=O
> 100 µM: all assays above
